From PMC6130489, “Caffeic acid methyl and ethyl esters exert potential antidiabetic effects on glucose and lipid metabolism in cultured murine insulin-sensitive cells through mechanisms implicating activation of AMPK” (Pharmaceutical Biology, 2017)

System: 3T3-L1 adipocytes
Assay: Adipogenesis assay (AdipoRed lipid accumulation)
Type: cell-based
Conditions: Mus musculus, 192 h, 3T3-L1, day 8 of differentiation; for IC50: read-out: adipogenesis inhibition IC50
Procedure: Starting from day 0 of differentiation, 3T3-L1 adipocytes were separately treated with different concentrations of either CAME or CAEE (12.5, 25, 50 and 100 μM). Cells treated with vehicle (0.1% DMSO) in proliferation and differentiation media were used as negative controls. The adipogenic compound rosiglitazone (5 μM) was added to some vehicle-treated wells and served as the positive control. At day 8 after initiation of differentiation, intracellular lipid accumulation was quantified as previously described using AdipoRed Reagent according to the manufacturer’s protocol (Martineau et al. [2010]).
Figure 3. (A and B) Anti-adipogenic effect of CAME and CAEE in 3T3-L1 adipocytes. Cells were treated with several concentrations (12.5, 25, 50 and100 μM) of either CAME or CAEE in DMEM containing 10% FBS and the standard adipogenic cocktail (500 μM 3-isobutyl-1-methylxanthine, 500 nM insulin and 10 μM dexamethasone) for 2 days then in DMEM containing 10% FBS and 500 nM insulin starting from days 2-8 of differentiation. This medium was changed every 2 days. (A) On day 8, lipid content was measured by AdipoRed assay. Results represent the means ± SEM of three independent experiments. *Indicates a significant (p ≤ 0.05) difference, **(p < 0.01), ***(p < 0.001) from the vehicle control group. […] Vehicle-treated cells show the presence of lipid droplets. On the other hand, cells treated with the maximum nontoxic concentration (100 μM) of either CAME or CAEE retained the fibroblast-like morphology of pre-adipocytes and were devoid of lipid droplets. (C) CAME and CAEE inhibit pre-adipocyte clonal expansion. Confluent 3T3-L1 pre-adipocytes undergoing clonal expansion in response to differentiation cues were treated with vehicle or 12.5, 25, 50 and 100 μM of either CAME or CAEE for 20 h and incorporation of ^3H-labeled thymidine was measured. Normalized data are presented as mean ± SEM of three independent experiments. **Indicates a significant (p ≤ 0.01) difference, ***(p < 0.001) from the vehicle control group.

Compound | IC50 [µM] | inhibition at 100 µM [%]
COC(=O)/C=C/c1ccc(O)c(O)c1 [CAME, CA methyl ester] | 13.8 | 83.3 ± 7.2
CCOC(=O)/C=C/c1ccc(O)c(O)c1 [CAEE, caffeic acid ethyl ester] | 12.9 | 97.3 ± 3
